Where two headings read alike, the source gives them in different places.
Experiments:
[1] = when oxidized to the 4+ state; cited from earlier work
[2] = Cyclic voltammetry (formal potential, diffusion coefficient); assay type: physicochemical; settings: for diffusion coefficient for the one-electron oxidation: 0.5 M TBAPF6, Randles-Sevcik fit
Procedure: (§1) Cyclic voltammetry was carried out in DMSO using a 3 mm glassy carbon electrode as working electrode, a Pt wire counter electrode, a silver wire pseudo reference electrode and tetrabutylammonium hexafluorophosphate as supporting […]. Ferrocene was used as an internal potential reference. Static cell cycling was carried out using graphite felt (Alfa Aesar, part #AA14630RR) which was heat-treated in a furnace at 250° C. under air, overnight, before use.
CV data with variable scan rates were used to determine the diffusion coefficient for the one-electron oxidation of CVBH^−2 by fitting with the Randles-Sevcik equation. In addition, to investigate the effect of solvent on this property, the analysis was carried out in propylene carbonate (PC).

[3] = Solubility in solvents; assay type: physicochemical; settings: solvents other than DMSO and water
Text: Since the solubility of CVBH is low in solvents other than DMSO and water, investigation of the electrochemistry in PC necessitated the synthesis of the bis-tetramethylammonium (TMA) salt of vanadium bis-hydroxyiminodiacetate (VBH), which was characterized using FTIR and X-ray crystallography (FIG. 2). While the coordination sphere of the VBH dianion is unperturbed compared to that of CVBH, solubility is greatly altered with two diffuse TMA countercations compared to the Ca^+2 counter-cation of CVBH. Altering the cation(s) of VBH^2− is a way to tune solubility in various battery-relevant solvents and compatibility with an array of membrane/separator architectures and supporting electrolytes. These attributes are paramount to realization of high power and energy densities in NRFB systems and this strategy offers a promising avenue for optimization.

[4] = Static cell cycling to ~80% state of charge; assay type: physicochemical; settings: more than 90 cycles, 0.35 V and −0.35 V vs. open circuit
Procedure: as §1
As such, the behavior of CVBH during cycling to ˜80% state of charge was investigated by alternately applying potentials of 0.35 V and −0.35 V vs. open circuit to oxidize and reduce the compound, respectively. […] Some decrease in peak current over time was observed (FIG. 5B), however, it was restored after stirring was stopped for 20 minutes (FIG. 5B, dotted line).

[5] = Exhaustive cycling using cyclic voltammetry (stability); assay type: physicochemical
Procedure: as §1
Any decomposition of CVBH under these conditions would be evident as a decrease in peak current and changes in reversibility, as the identity of the species present at the electrode evolved over time. […] This is in stark contrast to the anaerobic and anhydrous conditions that are necessary in handling other NRFB active materials. […] This occurs even in ostensibly anhydrous systems due to the presence of adventitious water, and is the result of ligand substitution, yielding a vanadyl (V═O) species that is nearly ubiquitous in aqueous vanadium(iv) coordination chemistry. […] While the former has been measured, the latter can be deduced using a thermodynamic cycle, constructed from published data for the vanadium(iv/v) reduction potentials of CVBH and aqueous, acidic vanadium ions, along with the metal-ligand stability constant of CVBH in the vanadium(iv) oxidation state (FIG. 4).

[6] = Metal-ligand stability constant; assay type: physicochemical; settings: oxidized, vanadium(v) state; deduced using a thermodynamic cycle
Text: Any decomposition of CVBH under these conditions would be evident as a decrease in peak current and changes in reversibility, as the identity of the species present at the electrode evolved over time. […] This is in stark contrast to the anaerobic and anhydrous conditions that are necessary in handling other NRFB active materials. […] This occurs even in ostensibly anhydrous systems due to the presence of adventitious water, and is the result of ligand substitution, yielding a vanadyl (V═O) species that is nearly ubiquitous in aqueous vanadium(iv) coordination chemistry. It should be further noted that CVBH is stable in both the reduced, vanadium(iv), state (as-synthesized) and the oxidized, vanadium(v) state, with metal ligand stability constants of 8.2×10^21 and 2.6×10^23, respectively. While the former has been measured, the latter can be deduced using a thermodynamic cycle, constructed from published data for the vanadium(iv/v) reduction potentials of CVBH and aqueous, acidic vanadium ions, along with the metal-ligand stability constant of CVBH in the vanadium(iv) oxidation state (FIG. 4).

[7] = earlier study, sample contaminated by mono-sodium salt of the ligand; cited from earlier work
[8] = reduced, vanadium(iv) state; cited from earlier work

Row | Structure (SMILES) | stability in the presence of water [1] | diffusion coefficient for the one-electron oxidation ([2]; DMSO) | formal potential (E°′=E1/2) ([2]; DMSO, ferrocene as internal standard) | diffusion coefficient for the one-electron oxidation ([2]; propylene carbonate (PC)) | solubility [3] | change in CV before and after static cell cycling [4] | change in voltammogram after addition of water ([5]; 20% water (by volume) in the presence of oxygen) | change in voltammogram on exhaustive CV cycling ([5]; over 800 cycles) | metal ligand stability constant [6] | formal potential, previously reported value [7] [V vs. SHE] | metal ligand stability constant [8]
1 | CC(=O)/C=C(/C)O.CC(=O)/C=C(/C)O.CC(=O)/C=C(/C)O.[V] [V(acac)3] | rapidly decomposes | – | – | – | – | – | – | – | – | – | –
2 | O.O.O.O.O.O=C([O-])CN(O)CC(=O)[O-].O=C([O-])CN(O)CC(=O)[O-].[Ca].[V+4] [CVBH, Calcium(ii) vanadium(iv)bis-hydroxyiminodiacetate pentahydrate] | – | 8.3×10^−7 cm^2·s^−1 | 0.30 V vs standard hydrogen electrode (SHE) | 5.6×10^−7 cm^2·s^−1 | low | no observed change in the shape of the CV | no change in voltammogram shape | virtually no change in the shape of the voltammogram | 2.6×10^23 | 0.38 | 8.2×10^21
